# In publication PMC5584945, “Evaluation of robenidine analog NCL195 as a novel broad-spectrum antibacterial agent” (PLoS ONE, 2017):
# Entries after “also recorded” stand apart in the source; their conditions may differ. Where two headings read alike, the source gives them in different places.
# Experiments:
# Hep G2 [1] = experiment: In vitro cytotoxicity, WST-1; format: cell-based; details: Homo sapiens, HepG2; 24 h exposure; read-out: IC50 values ± SEM
# Excerpt: (§1) In order to ensure minimal off target mammalian cell cytotoxicity, we assayed NCL812, NCL195 and NCL219 for in vitro cytotoxicity using a panel of adherent mammalian cell lines: Caco-2 (human colorectal adenocarcinoma cell line), HEL 299 (non-cancerous human lung fibroblast cell line), Hep G2 (human hepatocellular carcinoma cell line), MDBK (normal bovine kidney cell line) and MCF7 (human mammary gland adenocarcinoma cell line). Cell lines were maintained in Dulbecco’s Modified Eagle’s Medium (DMEM; […] After 24 h incubation, media was removed, washed once with medium without antibiotics and fresh medium supplemented with 10% (vol/vol) FBS was added. […] Following exposure for 24 h, WST-1 reagent was added to each well at a final concentration of 10%. […] The IC50 value for each compound against each cell line was determined via non-linear regression (three parameters) using GraphPad Prism v6 software. The robustness of assays was confirmed with selected cell lines (Hep G2 and MDBK) seeded onto a 96–well Microwell Nunclon Delta Surface plate (Thermo Scientific Nunc; Cat No: 136101) at 5 × 10^4 cells per well.
# HEL 299 = experiment: In vitro cytotoxicity, WST-1; format: cell-based; details: Homo sapiens, 24 h exposure, read-out: IC50 values ± SEM
# Excerpt: as §1
# MCF7 = experiment: In vitro cytotoxicity, WST-1; format: cell-based; details: Homo sapiens, 24 h exposure, read-out: IC50 values ± SEM
# Excerpt: as §1
# Caco-2 = experiment: In vitro cytotoxicity, WST-1; format: cell-based; details: Homo sapiens, 24 h exposure, read-out: IC50 values ± SEM
# Excerpt: as §1
# Hep G2 [2] = experiment: Real-time cell viability, RealTime-Glo MT; format: cell-based, human; details: 2 or 8 μg/ml, up to 20 h post-treatment
# [3] = Pharmacokinetics after IV administration; format: in vivo, mouse
# Method: Mice had access to food and water ad libitum throughout the pre- and post-dose sampling period. The Animal Ethics Committee of the Monash Institute of Pharmaceutical Sciences reviewed and approved all animal PK experiments (approval number MIPS.2013.33). The PK studies were conducted in compliance with the Australian Code of Practice for the Care and Use of Animals for Scientific Purposes (7th Edition 2004). […] For both the IV and IP administration, a maximum of two samples were obtained from each mouse, with samples being taken either via submandibular bleed (approximately 120 μl; conscious sampling) or terminal cardiac puncture (0.6 ml; under inhaled Isoflurane anesthesia). No urine samples were collected as mice were housed in bedded cages during the study. […] Mice were humanely sacrificed by cervical dislocation while under anaesthesia (using gaseous isoflurane) at the end of experiments. Blood was collected directly into polypropylene Eppendorf tubes containing heparin as anti-coagulant, and stabilization cocktail (containing Complete (a protease inhibitor cocktail with EDTA) and potassium fluoride) to minimize the potential for ex vivo degradation of the test compounds in blood/plasma samples. Once collected, blood samples were centrifuged immediately, supernatant plasma was removed, and stored at either -80°C (for the IV exposure) or at -20°C (for the IP exposure) until analysis by liquid chromatography-mass spectrometry (LC-MS). Following protein precipitation with acetonitrile, thawed plasma samples were analyzed by LC-MS (Waters Micromass Quattro Premier coupled to a Waters Acquity UPLC) using positive electrospray ionization operating in MRM mode.
# S. pneumoniae = experiment: MIC, broth micro-dilution (CLSI); format: cell-based, Streptococcus pneumoniae; details: for MIC / MIC50 / MIC90: Streptococcus pneumoniae
# [4] = male Swiss outbred mice, IV 5 mg/kg, 5 mg/kg
smiles,measurement,setting,value
"Cl.N=C(NN=Cc1ccc(Cl)cc1)NN=Cc1ccc(Cl)cc1 [NCL812, 2,2'-bis[(4-chlorophenyl)methylene] carbonimidic dihydrazide hydrochloride]",IC50,Hep G2 [1],9.4 ± 0.1 µg/mL
same,IC50,HEL 299,4.6 ± 0.1 µg/mL
same,IC50,MCF7,12 ± 0.2 µg/mL
same,IC50,Caco-2,8.2 ± 0.1 µg/mL
same,Effect on cell viability (real-time),Hep G2 [2],affected viability at 8 μg/ml
same,AUC(0-inf),[3]; [4],~27.9^ a h*μM
same,Plasma CL,[3]; [4],~9.5^ a mL/min/kg
same,AUC(0-inf),"[3]; male, Swiss (outbred), mouse, plasma, iv, 5 mg/kg, male Swiss outbred mice, read-out: AUC0-inf",27.9 µM·h
same,clearance,"[3]; male, Swiss (outbred), mouse, plasma, iv, 5 mg/kg, male Swiss outbred mice, read-out: Plasma CL",9.5 mL/min/kg
same,Adverse signs after parenteral (IV) administration,"[3]; mice, IV 5 mg/kg, 5 mg/kg",adverse neurological signs; also recorded: adverse clinical signs
same,half-life,"[3]; mouse, plasma, male Swiss outbred mice, IV 5 mg/kg, read-out: Apparent t½ (converted)",~8.2 h
same,Vd,"[3]; mouse, plasma, male Swiss outbred mice, IV 5 mg/kg, read-out: Plasma VSS",~5.9 L/kg
same,MIC range,S. pneumoniae; 21 isolates,2 to 8 µg/mL
same,MIC range,"S. pneumoniae; S1 Table isolates, 5% FBS + 3% washed RBC",4 to 8 µg/mL
same,MIC range,"S. pneumoniae; S1 Table isolates, 10% FBS + 3% washed RBC",2 to 8 µg/mL
same,MIC,"S. pneumoniae; A66.1 (serotype 3), 5% FBS",4 µg/mL
same,MIC,"S. pneumoniae; A66.1 (serotype 3), 10% FBS",4 µg/mL
same,MIC,"S. pneumoniae; ATCC6303, ATCC 6303 (serotype 3), 5% FBS + 3% washed RBC",4 µg/mL
same,MIC,"S. pneumoniae; ATCC6303, ATCC 6303 (serotype 3), 10% FBS + 3% washed RBC",4 µg/mL
same,MIC,"S. pneumoniae; D39/D39LUX (serotype 2), 5% FBS",8 µg/mL
same,MIC,"S. pneumoniae; D39/D39LUX (serotype 2), 10% FBS",8 µg/mL
same,MIC,"S. pneumoniae; EF3030 (serotype 19F), 5% FBS",8 µg/mL
same,MIC,"S. pneumoniae; EF3030 (serotype 19F), 10% FBS",8 µg/mL
same,MIC,"S. pneumoniae; L82016 (serotype 6B), 5% FBS",4 µg/mL
same,MIC,"S. pneumoniae; L82016 (serotype 6B), 10% FBS",4 µg/mL
same,MIC,"S. pneumoniae; P9 (serotype 6A), 5% FBS",4 µg/mL
same,MIC,"S. pneumoniae; P9 (serotype 6A), 10% FBS",4 µg/mL
same,MIC,"S. pneumoniae; P21 (serotype 3), 5% FBS",4 µg/mL
same,MIC,"S. pneumoniae; P21 (serotype 3), 10% FBS",4 µg/mL
same,MIC50,"S. pneumoniae; S1 Table isolates, 5% FBS",4 µg/mL
same,MIC90,"S. pneumoniae; S1 Table isolates, 5% FBS",8 µg/mL
same,MIC50,"S. pneumoniae; S1 Table isolates, 10% FBS",4 µg/mL
same,MIC90,"S. pneumoniae; S1 Table isolates, 10% FBS",8 µg/mL
same,MIC,"S. pneumoniae; TIGR4 (serotype 4), 5% FBS",4 µg/mL
same,MIC,"S. pneumoniae; TIGR4 (serotype 4), 10% FBS",4 µg/mL
same,MIC,"S. pneumoniae; WCH16 (serotype 6A), 5% FBS",4 µg/mL
same,MIC,"S. pneumoniae; WCH16 (serotype 6A), 10% FBS",8 µg/mL
same,MIC,"S. pneumoniae; WCH43 (serotype 4), 5% FBS",4 µg/mL
same,MIC,"S. pneumoniae; WCH43 (serotype 4), 10% FBS",4 µg/mL
same,MIC,"S. pneumoniae; WCH46 (serotype 4), 5% FBS",4 µg/mL
same,MIC,"S. pneumoniae; WCH46 (serotype 4), 10% FBS",4 µg/mL
same,MIC,"S. pneumoniae; WCH57 (serotype 8), 5% FBS",4 µg/mL
same,MIC,"S. pneumoniae; WCH57 (serotype 8), 10% FBS",4 µg/mL
same,MIC,"S. pneumoniae; WCH77 (serotype 5), 5% FBS",4 µg/mL
same,MIC,"S. pneumoniae; WCH77 (serotype 5), 10% FBS",2 µg/mL
same,MIC,"S. pneumoniae; WCH86 (serotype 4), 5% FBS",4 µg/mL
same,MIC,"S. pneumoniae; WCH86 (serotype 4), 10% FBS",8 µg/mL
same,MIC,"S. pneumoniae; WCH89 (serotype 7), 5% FBS",4 µg/mL
same,MIC,"S. pneumoniae; WCH89 (serotype 7), 10% FBS",8 µg/mL
same,MIC,"S. pneumoniae; WCH92 (serotype 4), 5% FBS",4 µg/mL
same,MIC,"S. pneumoniae; WCH92 (serotype 4), 10% FBS",4 µg/mL
same,MIC,"S. pneumoniae; WCH137 (serotype 6A), 5% FBS",4 µg/mL
same,MIC,"S. pneumoniae; WCH137 (serotype 6A), 10% FBS",4 µg/mL
same,MIC,"S. pneumoniae; WCH158 (serotype 19F), 5% FBS",4 µg/mL
same,MIC,"S. pneumoniae; WCH158 (serotype 19F), 10% FBS",4 µg/mL
same,MIC,"S. pneumoniae; WCH184 (serotype 19F), 5% FBS",4 µg/mL
same,MIC,"S. pneumoniae; WCH184 (serotype 19F), 10% FBS",4 µg/mL
same,MIC,"S. pneumoniae; WCH211 (serotype 11), 5% FBS",4 µg/mL
same,MIC,"S. pneumoniae; WCH211 (serotype 11), 10% FBS",4 µg/mL
same,MIC,"S. pneumoniae; WU2 (serotype 3), 5% FBS",8 µg/mL
same,MIC,"S. pneumoniae; WU2 (serotype 3), 10% FBS",8 µg/mL
